Measurements from publication PMC10058671 (Pharmaceutics, 2023).
≈ marks a conversion by molar mass, not a printed value. Read-outs that look alike come from different tables or passages of the source.

Tests used:
[1] = Pharmacokinetic study after daily oral pyronaridine/artesunate in hamsters (noncompartmental analysis of observed blood, lung and trachea concentrations); set-up: species or system golden hamsters; conditions: for tolerability of the doses (no unscheduled deaths): 180/60 and 360/120 mg/kg pyronaridine/artesunate oral once a day for 3 days
Method: One hundred eight male golden hamsters were obtained from Janvier Lab. (Le Genest-Saint-Isle, France). All hamsters were maintained on a 12-h dark–light cycle at a temperature of 23 ± 3 °C and relative humidity of 55 ± 15%. This study was conducted according to the Guidelines for Ethical Conduct in the Care and Use of Animals and the rules of Good Laboratory Practice and was approved by the Institutional Animal Care and Use Committee (IACUC, protocol number SP2021-14) at Shin Poong Pharm. Co., Ltd. (Seoul, Republic of Korea).
The hamsters (102.01 ± 5.72 g) were divided into two groups: a low-dose group (n = 60) and a high-dose group (n = 48). […] Blood samples (0.5 mL) were drawn from the jugular vein into heparinized tubes at the following times: 0 (predose), 0.08, 0.25, 0.5, 0.75, 1, 2, 4, 8, 12, 24, 47, 48.08, 48.25, 48.5, 48.75, 49, 50, 52, 56, 60, and 72 h during oral administration for 3 days. The blood sampling was conducted 1–3 times per hamster within 72 h, and the tissues were collected after the last blood sampling. The number of animals was four per blood and tissue sampling time point, respectively (each n = 4). The lung and trachea tissues were immediately obtained after sacrificing hamsters, washed in normal saline, and dried with filter papers. The lung and trachea sampling times were as follows: 0.08, 0.25, 0.5, 0.75, 1, 4, 8, 24, 48.08, 48.25, 48.75, 52, and 72 h. Tissues were individually weighed and homogenized with water (lung or trachea tissue: water = 1:4 w/v). The lung and trachea tissue homogenate were stored at −70 °C until sample analysis. For pyronaridine quantification, whole blood samples were stored at −70 °C until sample analysis.
Liquid chromatography was conducted on the Agilent 1290 Infinity II LC System (Agilent Technologies Inc., Santa Clara, CA, USA) coupled to a 6490 Triple Quad Mass Spectrometer (Agilent Technologies Inc., Santa Clara, CA, USA). A Synergi Max-RP column (2.0 × 75 mm, 4 μm particle size, Phenomenex, Torrance, CA, USA) was used at a temperature of 25 °C. The mobile phase consisted of 0.04% TFA (mobile phase A) and methanol:acetonitrile (3:1 v/v, mobile phase B) with a flow rate of 0.2 mL/min. A gradient elution was used for the chromatographic separation of pyronaridine as follows: 0.0–1.5 min, 10% B; 1.5–1.6 min, 10–60% B; 1.6–4.0 min, 60% B; 4.0–4.1 min, 60–10% B; […], 10% B. The multiple reaction monitoring (MRM) mode was set with a positive electrospray ionization mode. The MRM transitions of pyronaridine and amodiaquine (internal standard, IS) were 518.2 > 447.1 and 356.2 > 283.0. The collision energy of pyronaridine and amodiaquine were 17 and 21 eV, and the cell accelerator voltage was 5 V for both compounds.
Chromatographic separation was performed with an Inertsil ODS column (2.1 × 100 mm, 5 µm particle size, GL Sciences, Tokyo, Japan) column at a temperature of 25 ℃. The mobile phase consisted of 10 mM ammonium acetate (mobile phase A) and acetonitrile (mobile phase B) with an isocratic elution (A:B = 10:90, v/v), and a flow rate of 0.2 mL/min. The mass spectrometer was operated on electrospray ionization positive mode.
Fifty μL of hamster blood, lung, or trachea tissue homogenates were added with 10 μL of the IS solution (10 μg/mL of amodiaquine). Added to the mixed sample were 125 μL of 0.5 M sodium phosphate tribasic dodecahydrate buffer (pH adjusted to 10.3 with 85% ortho-phosphoric acid) and 500 μL of ether, vortexed for 5 min and centrifuged at 21,130× g for 5 min. Then, 300 μL of supernatant were transferred to new microtubes and dried under nitrogen steam at room temperature. The dried residues were reconstituted with 100 μL of mobile phase (0.04% TFA:methanol:acetonitrile = 40:45:15, v/v/v) and vortexed for 5 min. After centrifugation at 21,130× g for 5 min, 5 μL of aliquot were injected into the UPLC-MS/MS system.
Then, 50 μL of hamster plasma, lung, or trachea tissue homogenates were added with 10 μL of the IS solution (5 μg/mL of artemisinin).

SARS-CoV-2 [2] = test system: SARS-CoV-2; set-up: method as in PMID 34272426; conditions: range in different cell types; cited from earlier work
SARS-CoV-2 [3] = test system: SARS-CoV-2; set-up: method as in PMID 32786284; conditions: anti-SARS-CoV-2; cited from earlier work
SARS-CoV-2 [4] = conditions: Call-3 cells, dose-dependent manner; cited from earlier work
seasonal influenza A = conditions: Call-3 cells, dose-dependent manner; cited from earlier work
[5] = rodents; cited from earlier work
[6] = in vivo; cited from earlier work
SARS-CoV-2 [7] = test system: SARS-CoV-2; set-up: method as in PMID 32916297; conditions: in vitro anti-SARS-CoV-2; cited from earlier work
SARS-CoV-2 in Vero cells = conditions: cited from earlier work
[8] = test system: SARS-CoV-2 in Vero E6 cells; set-up: method as in PMID 33075512; conditions: cited from earlier work
[9] = test system: SARS-CoV-2 in Huh7.5 cells; set-up: method as in PMID 34755538; conditions: cited from earlier work
[10] = test system: SARS-CoV-2 in Calu-3 cells; set-up: method as in PMID 34755538; conditions: cited from earlier work
SARS-CoV-2 [11] = test system: SARS-CoV-2; set-up: method as in PMID 35609344; conditions: SARS-CoV-2 infected mice; cited from earlier work
[12] = cited from earlier work
[13] = rat, in vivo; cited from earlier work
[14] = dog, in vivo; cited from earlier work
[15] = male, golden, hamster, in vivo, po, 180 mg/kg
[16] = male, golden, hamster, in vivo, po, 360 mg/kg
[17] = fitted, parent-metabolite model

C[C@H]1[C@H](OC(=O)CCC(=O)O)O[C@@H]2O[C@@]3(C)CC[C@H]4[C@H](C)CC[C@@H]1[C@@]24OO3 [Artesunate, artesunate]
tolerability of the doses (no unscheduled deaths) [1]: tolerated | Klung (lung-to-blood partition coefficient) (fitted): 10.33 | Ktrachea (trachea-to-blood partition coefficient) (fitted): 1.48 | ka (first-order absorption rate constant) (fitted): 1.74 h⁻¹ | klt (lung-to-trachea transfer rate constant) (fitted): 0.34 h⁻¹ | ktl (trachea-to-lung transfer rate constant) (fitted): 1.50 h⁻¹ | CL/F (apparent total clearance) (hamster): 2517.70 L/h | EC50 (SARS-CoV-2 [2]): 18.2 to 31.2 µM | EC50 (SARS-CoV-2 [3]): 13 µM | growth and viral replication of SARS-CoV-2 (SARS-CoV-2 [4]): inhibited the growth and viral replication | growth and viral replication of seasonal influenza A (seasonal influenza A): inhibited the growth and viral replication | maximal nonlethal dose [5]: 500 mg/kg | elimination half-life [6]: 19.2 to 31.2 min | time to peak concentrations [6]: less than five minutes | time until concentrations decreased below the quantification limit [6]: 2 h

COc1ccc2nc3cc(Cl)ccc3c(Nc3cc(CN4CCCC4)c(O)c(CN4CCCC4)c3)c2n1 [Pyronaridine, Pyronaridine tetraphosphate]
tolerability of the doses (no unscheduled deaths) [1]: tolerated | Kp at 3 day ([1]; male, golden, hamster, in vivo, lung-to-blood AUC ratio): 51 | Kp at 1 day ([1]; male, golden, hamster, in vivo, lung-to-blood AUC ratio (=AUClung/AUCblood)): 25.5 | AUC at 1 day [1, 15]: 24100 ng·h/mL | AUC at 3 day [1, 15]: 57100 ng·h/mL | Cmax [1, 15]: 2700 ng/mL | AUC at 1 day [1, 16]: 51000 ng·h/mL | AUC at 3 day [1, 16]: 84900 ng·h/mL | Cmax [1, 16]: 4540 ng/mL | Tmax [1, 16]: 2 to 4 h | Kp at 3 day ([1]; male, golden, hamster, in vivo, trachea-to-blood AUC ratio): 16.6 | Kp at 1 day ([1]; male, golden, hamster, in vivo, trachea-to-blood AUC ratio (=AUCtrachea/AUCblood)): 7.17 | Klung (lung-to-blood partition coefficient) (fitted): 26.06 | Krest (rest of the body-to-blood partition coefficient) (fitted): 5.25 × 10^−7 | Ktrachea (trachea-to-blood partition coefficient) (fitted): 8.67 | ka (first-order absorption rate constant) (fitted): 0.03 h⁻¹ | klt (lung-to-trachea transfer rate constant) (fitted): 0.92 h⁻¹ | ktl (trachea-to-lung transfer rate constant) (fitted): 1.01 h⁻¹ | CL/F (apparent total clearance) (hamster): 0.21 L/h | EC50 (SARS-CoV-2 [7]): 720 nM | EC90 (SARS-CoV-2 [7]): 750 nM | EC50 (SARS-CoV-2 in Vero cells; after 24 h of culture): 569.9 ng/mL (≈ 1.1 µM) | EC50 (SARS-CoV-2 in Vero cells; after 48 h of culture): 1139.7 ng/mL (≈ 2.2 µM) | EC50 [8]: 373.0 ng/mL (≈ 0.72 µM) | concentration showing anti-SARS-CoV-2 activity [9]: 103.6 ng/mL | concentration showing anti-SARS-CoV-2 activity [10]: 8.6 ng/mL | viral load in the lungs (SARS-CoV-2 [11]): significant inhibition of the viral load in the lungs | growth and viral replication of SARS-CoV-2 (SARS-CoV-2 [4]): inhibited the growth and viral replication | growth and viral replication of seasonal influenza A (seasonal influenza A): inhibited the growth and viral replication | blood-to-plasma ratio [12]: 4.9–17.8 | maximal nonlethal dose [5]: 1500 mg/kg | elimination half-life [13]: two to four days | elimination half-life [14]: 2.5 days

C[C@H]1[C@@H](O)O[C@@H]2O[C@@]3(C)CC[C@H]4[C@H](C)CC[C@@H]1[C@@]24OO3 [Dihydroartemisinin, dihydroartemisinin]
Klung,m (lung-to-blood partition coefficient) [17]: 0.34 | Krest,m (rest of the body-to-blood partition coefficient) [17]: 1.21 | Ktrachea,m (trachea-to-blood partition coefficient) [17]: 1.08 | klt,m (lung-to-trachea transfer rate constant) [17]: 0.35 h⁻¹ | ktl,m (trachea-to-lung transfer rate constant) [17]: 6.98 h⁻¹ | CLm/F (apparent total clearance of metabolite) (hamster): 10.33 L/h | EC50 (SARS-CoV-2 [3]): 13.3 µM | blood-to-plasma ratio / partition coefficient (Kb:p, Kb:p,m) [12]: 0.75 | elimination half-life [13]: 15 to 61.8 min | elimination half-life [14]: 0.0162 to 0.0275 days | elimination half-life [6]: 19.2 to 31.2 min | time to peak concentrations [6]: less than five minutes
